The record followed here is patent publication US9365550B2, “Benzimidazoles as CNS active agents” (Hoffmann-La Roche Inc., priority 2012, dated 2016).

The subject of series [1] is human embryonic stem cell derived neural stem cells (NSCs). The series is described as follows: Neural stem cell proliferation assay (neurogenesis assay, ATP/CellTiterGlo). Particulars: 96 h, compound concentration at which 150% activity of control (100%) is reached, NSC proliferation by ATP level after 4 days incubation, dose response 8 μM to 8 nM. The class given is cell-based. The method, then:
Neural Stem Cell Proliferation Assay
Neurogenic properties of small molecules are determined based on the proliferation of human embryonic stem cell derived neural stem cells (NSCs) which were derived via a dual smad inhibition as previously described (Chambers, S. M., et al., Highly efficient neural conversion of human ES and iPS cells by dual inhibition of SMAD signaling, Nature biotechnology, 2009. 27(3): p. 275-80.)
Compounds respond is measured by the increase in cells based on ATP levels (Promega:CellTiterGlo®) after an incubation period of 4 days.
NSCs are thawed and expanded over 3 passages. On the 14th day, NSCs are seeded in Polyornithin/Laminin coated 384 well plates at a cell density of 21,000 cells/cm^2 in a media volume of 38 μL.
4 hours after cell seeding, compound solutions are added at a volume of 2 μl. Stock solutions of the compounds (water, 5% DMSO) are diluted to obtain a dose response (11 points, dilution factor is 2), ranging from 8 μM to 8 nM. Controls are run to consistently determine the neurogenic properties of the cells:
Negative (neutral) control is cell culture Media (final DMSO concentration: 0.25%).
Positive controls are: • 1. cell culture Media+100 ng/ml FGF2 (final DMSO concentration: 0.1%) • 2. cell culture Media+20 ng/ml EGF (final DMSO concentration: 0.1%) • 3. cell culture Media+100 ng/ml Wnt3a (final DMSO concentration: 0.1%)
After 4 days incubation at 37° C., 5% CO2, the amount of ATP per well is quantified. The ATP concentration is proportional to the cell number. ATP is quantified by using the Promega CellTiterGlo® kit. The CellTiterGlo® reagents contain a cell lysis buffer, a thermo stable luciferase (UltraGlo™ recombinant luciferase), magnesium and luciferin. Luciferin reacts with ATP producing oxyluciferin, AMP and light. The luminescence signal is proportional to the ATP content.
The value of negative (neutral) control is determined for each assay plate by taking the average of 16 negative control wells. The neurogenic compound response is calculated for each compound as (compound/Negative Control)*100.
The values of EC150 from the dose response curve are determined for each test compound. The EC150 is the compound concentration at which 150% activity of control (100%) is reached.
(In general: Cellular ATP, detected with luciferase, serves as a proxy for viable cell number.)

What is called melting point is the temperature of the solid-liquid transition.

The compound `Clc1ccc(-n2nccc2-c2ccc3ncn(-c4ccc(Cl)cc4)c3c2)cc1` [Example 13, 1-(4-Chloro-phenyl)-6-[2-(4-chloro-phenyl)-2H-pyrazol-3-yl]-1H-benzoimidazole] displayed a melting point of 182 °C. Also, in series [1], the EC150 came to 0.082 µM.
The matching figures for `Fc1ccc(-n2cnc3ccc(-c4ccnn4-c4ccc(Cl)cc4)cc32)cc1` [Example 11, 6-[2-(4-Chloro-phenyl)-2H-pyrazol-3-yl]-1-(4-fluoro-phenyl)-1H-benzoimidazole]: 180 °C and 0.11 µM.
The matching figures for `Fc1ccc(-n2nccc2-c2ccc3ncn(-c4ccc(F)cc4)c3c2)cc1` [Example 8, 1-(4-Fluoro-phenyl)-6-[2-(4-fluoro-phenyl)-2H-pyrazol-3-yl]-1H-benzoimidazole]: 173 °C and 0.044 µM.
The matching figures for `c1ccc(-n2nccc2-c2ccc3ncn(-c4ccccc4)c3c2)cc1` [Example 2, 1-Phenyl-6-(2-phenyl-2H-pyrazol-3-yl)-1H-benzoimidazole]: 194 °C and 0.014 µM.
In the case of `FC(F)(F)c1ccc(-n2cnc3ccc(-c4ccnn4-c4ccc(Cl)cc4)cc32)cc1` [Example 14, 6-[2-(4-Chloro-phenyl)-2H-pyrazol-3-yl]-1-(4-trifluoromethyl-phenyl)-1H-benzoimidazole], the melting point was found to be 196 °C. Besides, the EC150 in series [1] is 0.62 µM.
The matching figures for `Clc1ccc(-n2nccc2-c2ccc3ncn(-c4ccncc4)c3c2)cc1` [Example 21, 6-[2-(4-Chloro-phenyl)-2H-pyrazol-3-yl]-1-pyridin-4-yl-1H-benzoimidazole]: 203 °C and 0.036 µM.
Taken in the same sequence, the figures for `Fc1ccc(-n2nccc2-c2ccc3ncn(-c4ccc(F)cc4F)c3c2)cc1` [Example 17, 1-(2,4-Difluoro-phenyl)-6-[2-(4-fluoro-phenyl)-2H-pyrazol-3-yl]-1H-benzoimidazole] were 152 °C and 0.047 µM.
The matching figures for `COc1ccc(-n2cnc3ccc(-c4ccnn4-c4ccc(Cl)cc4)cc32)cc1` [Example 25, 6-[2-(4-Chloro-phenyl)-2H-pyrazol-3-yl]-1-(4-methoxy-phenyl)-1H-benzoimidazole]: 163 °C and 0.056 µM.
The compound `Fc1ccc(-n2cnc3ccc(-c4ccnn4-c4ccc(Cl)cc4)cc32)c(F)c1` [Example 16, 6-[2-(4-Chloro-phenyl)-2H-pyrazol-3-yl]-1-(2,4-difluoro-phenyl)-1H-benzoimidazole] registered a melting point of 133 °C. The compound further gave an EC150 in series [1] of 0.19 µM.
The matching figures for `Fc1ccc(-n2nccc2-c2ccc3ncn(-c4ccc(Cl)cc4F)c3c2)cc1` [Example 22, 1-(4-Chloro-2-fluoro-phenyl)-6-[2-(4-fluoro-phenyl)-2H-pyrazol-3-yl]-1H-benzoimidazole]: 153 °C and 0.084 µM.
Taken in the same sequence, the figures for `Fc1ccc(-n2cnc3ccc(-c4ccnn4-c4ccc(C(F)(F)F)cc4)cc32)c(F)c1` [Example 15, 1-(2,4-Difluoro-phenyl)-6-[2-(4-trifluoromethyl-phenyl)-2H-pyrazol-3-yl]-1H-benzoimidazole] were 129 °C and 1.33 µM.
Taken in the same sequence, the figures for `Fc1ccc(-n2cnc3ccc(-c4ccnn4-c4ccc(C(F)(F)F)cc4)cc32)cc1` [Example 10, 1-(4-Fluoro-phenyl)-6-[2-(4-trifluoromethyl-phenyl)-2H-pyrazol-3-yl]-1H-benzoimidazole] were 167 °C and 1.1 µM.
`Fc1ccc(-n2cncc2-c2ccc3ncn(-c4ccc(F)cc4)c3c2)cc1` [Example 30, 1-(4-Fluoro-phenyl)-6-[3-(4-fluoro-phenyl)-3H-imidazol-4-yl]-1H-benzoimidazole] returned a melting point of 247 °C. The EC150 in series [1] was determined as 0.11 µM.
The matching figures for `CS(=O)(=O)c1ccc(-n2cnc3ccc(-c4ccnn4-c4ccc(Cl)cc4)cc32)cc1` [Example 27, 6-[2-(4-Chloro-phenyl)-2H-pyrazol-3-yl]-1-(4-methanesulfonyl-phenyl)-1H-benzoimidazole]: 280 °C and 0.16 µM.
The matching figures for `Fc1ccc(-n2nccc2-c2ccc3ncn(-c4ccc(C(F)(F)F)cc4)c3c2)cc1` [Example 18, 6-[2-(4-Fluoro-phenyl)-2H-pyrazol-3-yl]-1-(4-trifluoromethyl-phenyl)-1H-benzoimidazole]: 204 °C and 0.41 µM.
The matching figures for `Fc1ccc(-n2nccc2-c2ccc3ncn(-c4ccc(Cl)cc4)c3c2)cc1` [Example 19, 1-(4-Chloro-phenyl)-6-[2-(4-fluoro-phenyl)-2H-pyrazol-3-yl]-1H-benzoimidazole]: 173 °C and 0.09 µM.
